Assay results as given in patent US20260347364A1, “PYRAZOLO[4,3-F]QUINAZOLINE DERIVATIVES AS MODULATORS OF G12D MUTANT KRAS USEFUL FOR THE TREATMENT OF CANCER” (JAZZ PHARMACEUTICALS IRELAND LTD., priority 2023, published 2026).
pIC50: −log10 of the molar value.

Experiments:
KRAS G12D = biological target: T1, KRAS G12D (Homo sapiens, UniProt P01116, G12D); assay: HTRF nucleotide exchange assay, KRAS G12D; type: biochemical; details: class symbols; for pIC50: HTRF nucleotide exchange assay (NEA)
T1 construct: aa1-188 KRAS WT, HRAS WT, NRAS WT, or KRAS containing the G12D

KRAS WT = biological target: T2, KRAS WT (Homo sapiens, UniProt P01116); assay: HTRF nucleotide exchange assay, KRAS WT; type: biochemical; details: class symbols; for pIC50: HTRF nucleotide exchange assay (NEA)
T2 construct: aa1-188 KRAS WT

Row | Structure (SMILES) | pIC50 (KRAS G12D) | pIC50 (KRAS WT) | KRAS^G12D NEA (KRAS G12D) | KRAS^WT NEA (KRAS WT)
1 | CCc1c(F)ccc2cc(O)cc(-c3cc4nc(OC[C@@]56CCCN5C[C@H](F)C6)nc(N5CCCC(CO)C5)c4c4cn(C)nc34)c12 (stereo partly drawn) [Example 114, 5-ethyl-6-fluoro-4-[9-[3-(hydroxymethyl)-1-piperidyl]-2-methyl-7-[[(2R,8S)-2-fluoro-1,2,3,5,6,7-hexahydropyrrolizin-8-yl]methoxy]pyrazolo[4,3-f]quinazolin-4-yl]naphthalen-2-ol] | ≥ 8.00 | 7.00 to 8.00 |  | 
2 | CCc1c(F)ccc2cc(O)cc(-c3c(F)c4nc(OCC5(CN6CCCC6)CC5)nc(N5CCOCC(C)(O)C5)c4c4cn(C)nc34)c12 (stereo not shown) [Example 155, 4-[4-(8-ethyl-7-fluoro-3-hydroxy-1-naphthyl)-5-fluoro-2-methyl-7-[[1-(pyrrolidin-1-ylmethyl)cyclopropyl]methoxy]pyrazolo[4,3-f]quinazolin-9-yl]-6-methyl-1,4-oxazepan-6-ol] | ≥ 8.00 | ≥ 8.00 |  | 
3 | CCc1c(F)ccc2cc(O)cc(-c3cc4nc(OC[C@@]56CCCN5C[C@H](F)C6)nc(N5CCCC(C)(O)CC5)c4c4cn(C)nc34)c12 (stereo partly drawn) [Example 29, 1-[4-(8-ethyl-7-fluoro-3-hydroxy-1-naphthyl)-7-[[(2R,8S)-2-fluoro-1,2,3,5,6,7-hexahydropyrrolizin-8-yl]methoxy]-2-methyl-pyrazolo[4,3-f]quinazolin-9-yl]-4-methyl-azepan-4-ol] |  | 5.00 to 7.00 | D (<49% inhibition at 10 μM) | 
4 | CN(C)C(=O)c1cc2n(n1)CCCN(c1nc(OC[C@@]34CCCN3C[C@H](F)C4)nc3cc(-c4cc(O)c(F)c5ccccc45)c4nn(C)cc4c13)C2 [Example 61, 5-[4-(4-fluoro-3-hydroxy-1-naphthyl)-2-methyl-7-[[(2R,8S)-2-fluoro-1,2,3,5,6,7-hexahydropyrrolizin-8-yl]methoxy]pyrazolo[4,3-f]quinazolin-9-yl]-N,N-dimethyl-4,6,7,8-tetrahydropyrazolo[1,5-a][1,4]diazepine-2-carboxamide] | 7.00 to 8.00 | 5.00 to 7.00 |  | 
5 | CCc1c(F)ccc2cc(O)cc(-c3c(F)c4nc(OCC5(CN6CC7CC7C6)CC5)nc(N5CCOCC(C)(O)C5)c4c4cn(C)nc34)c12 (stereo not shown) [Example 221, 4-[7-[[1-(3-azabicyclo[3.1.0]hexan-3-ylmethyl)cyclopropyl]methoxy]-4-(8-ethyl-7-fluoro-3-hydroxy-1-naphthyl)-5-fluoro-2-methyl-pyrazolo[4,3-f]quinazolin-9-yl]-6-methyl-1,4-oxazepan-6-ol] | ≥ 8.00 | ≥ 8.00 |  | 
6 | CCc1c(F)ccc2cc(O)cc(-c3c(F)c4nc(OCC5(CF)COC5)nc(N5CC6CCC(C5)N6)c4c4cn(C)nc34)c12 [Example 167, 4-[9-(3,8-diazabicyclo[3.2.1]octan-3-yl)-5-fluoro-7-[[3-(fluoromethyl)oxetan-3-yl]methoxy]-2-methyl-pyrazolo[4,3-f]quinazolin-4-yl]-5-ethyl-6-fluoro-naphthalen-2-ol] | ≥ 8.00 | 5.00 to 7.00 |  | 
7 | CCc1c(F)ccc2cc(O)cc(-c3c(F)c4nc(OCC5(CN6CCC(F)(F)C6)CC5)nc(N5CCOCC(C)(O)C5)c4c4cn(C)nc34)c12 (stereo not shown) [Example 189, 4-[7-[[1-[(3,3-difluoropyrrolidin-1-yl)methyl]cyclopropyl]methoxy]-4-(8-ethyl-7-fluoro-3-hydroxy-1-naphthyl)-5-fluoro-2-methyl-pyrazolo[4,3-f]quinazolin-9-yl]-6-methyl-1,4-oxazepan-6-ol] | 7.00 to 8.00 | 7.00 to 8.00 |  | 
8 | CCc1c(F)ccc2cc(O)cc(-c3cc4nc(OC[C@@H]5CCN5C)nc(N5CCCn6nc(C(=O)N(C)C)cc6C5)c4c4cn(C)nc34)c12 [Example 70] | ≥ 8.00 | 7.00 to 8.00 |  | 
9 | CCc1c(F)ccc2cc(O)cc(-c3cc4nc(OC[C@@]56CCCN5C[C@H](F)C6)nc(N5CCCn6nc(C(=O)N(C)C)cc6C5)c4c4cn(C)nc34)c12 [Example 22, 5-[4-(8-ethyl-7-fluoro-3-hydroxy-1-naphthyl)-2-methyl-7-[[(2R,8S)-2-fluoro-1,2,3,5,6,7-hexahydropyrrolizin-8-yl]methoxy]pyrazolo[4,3-f]quinazolin-9-yl]-N,N-dimethyl-4,6,7,8-tetrahydropyrazolo[1,5-a][1,4-]diazepine-2-carboxamide] | ≥ 8.00 | ≥ 8.00 |  | 
10 | CCc1c(F)ccc2cc(O)cc(-c3c(F)c4nc(OCC5(CN(CC)CC)CC5)nc(N5CCOCC(C)(O)C5)c4c4cn(C)nc34)c12 (stereo not shown) [Example 166, -[7-[[1-(diethylaminomethyl)cyclopropyl]methoxy]-4-[8-ethyl-7-fluoro-3-(methoxymethoxy)-1-naphthyl]-5-fluoro-2-methyl-pyrazolo[4,3-f]quinazolin-9-yl]-6-methyl-1,4-oxazepan-6-ol] | ≥ 8.00 | ≥ 8.00 |  | 
11 | CCc1c(F)ccc2cc(O)cc(-c3cc4nc(OC[C@@]56CCCN5C[C@H](F)C6)nc(N5C6CCC5CN(CCCO)C6)c4c4cn(C)nc34)c12 [Example 89, 5-ethyl-6-fluoro-4-[7-[[(2R,8S)-2-fluoro-1,2,3,5,6,7-hexahydropyrrolizin-8-yl]methoxy]-9-[3-(3-hydroxypropyl)-3,8-diazabicyclo[3.2.1]octan-8-yl]-2-methyl-pyrazolo[4,3-f]quinazolin-4-yl]naphthalen-2-ol] | ≥ 8.00 | 5.00 to 7.00 |  | 
12 | CCc1c(F)ccc2cc(O)cc(-c3c(C)c4nc(OC[C@@]56CCCN5C[C@H](F)C6)nc(N5CCCOCC5)c4c4cn(C)nc34)c12 [Example 79, 4-[2,5-dimethyl-9-(1,4-oxazepan-4-yl)-7-[[(2R,8S)-2-fluoro-1,2,3,5,6,7-hexahydropyrrolizin-8-yl]methoxy]pyrazolo[4,3-f]quinazolin-4-yl]-5-ethyl-6-fluoro-naphthalen-2-ol] | ≥ 8.00 | ≥ 8.00 |  | 
13 | CCc1c(F)ccc2cc(O)cc(-c3c(F)c4nc(OC[C@@H]5CCN5)nc(N5CCOCC(C)(O)C5)c4c4cn(C)nc34)c12 (stereo partly drawn) [Example 156, 4-[4-(8-ethyl-7-fluoro-3-hydroxy-1-naphthyl)-5-fluoro-2-methyl-7-[[(2S)-azetidin-2-yl]methoxy]pyrazolo[4,3-f]quinazolin-9-yl]-6-methyl-1,4-oxazepan-6-ol] | ≥ 8.00 | ≥ 8.00 |  | 
14 | CCc1c(F)ccc2cc(O)cc(-c3c(F)c4nc(OCC5(CN6CCCCC6)CC5)nc(N5CCOCC(C)(O)C5)c4c4cn(C)nc34)c12 (stereo not shown) [Example 172, 4-[4-(8-ethyl-7-fluoro-3-hydroxy-1-naphthyl)-5-fluoro-2-methyl-7-[[1-(1-piperidylmethyl)cyclopropyl]methoxy]pyrazolo[4,3-f]quinazolin-9-yl]-6-methyl-1,4-oxazepan-6-ol] | ≥ 8.00 | ≥ 8.00 |  | 
15 | CCc1c(F)ccc2cc(O)cc(-c3cc4nc(OC[C@@]56CCCN5C[C@H](F)C6)nc(N5CCC6CC6(O)C5)c4c4cn(C)nc34)c12 (stereo partly drawn) [Example 127, 3-[4-(8-ethyl-7-fluoro-3-hydroxy-1-naphthyl)-2-methyl-7-[[(2R,8S)-2-fluoro-1,2,3,5,6,7-hexahydropyrrolizin-8-yl]methoxy]pyrazolo[4,3-f]quinazolin-9-yl]-3-azabicyclo[4.1.0]heptan-1-ol] | 7.00 to 8.00 | 7.00 to 8.00 |  | 
16 | CCc1c(F)ccc2cc(O)cc(-c3c(F)c4nc(OCC5(CN6CC[C@H](O)C6)CC5)nc(N5CCOCC(C)(O)C5)c4c4cn(C)nc34)c12 (stereo partly drawn) [Example 190, 4-[4-(8-ethyl-7-fluoro-3-hydroxy-1-naphthyl)-5-fluoro-2-methyl-7-[[1-[[(3S)-3-hydroxypyrrolidin-1-yl]methyl]cyclopropyl]methoxy]pyrazolo[4,3-f]quinazolin-9-yl]-6-methyl-1,4-oxazepan-6-ol] | ≥ 8.00 | ≥ 8.00 |  | 
17 | CCc1c(F)ccc2cc(O)cc(-c3c(C)c4nc(OC[C@]5(C)CCCN5C)nc(N5CCC[C@@](C)(O)C5)c4c4cn(C)nc34)c12 [Example 234] | ≥ 8.00 | 7.00 to 8.00 |  | 
18 | CCc1c(F)ccc2cc(O)cc(-c3cc4nc(OC[C@@H]5C[C@@H](OC)CN5)nc(N5CCCn6nc(C(=O)N(C)C)cc6C5)c4c4cn(C)nc34)c12 [Example 51] | ≥ 8.00 | 7.00 to 8.00 |  | 
19 | CCc1c(F)ccc2cc(O)cc(-c3cc4nc(OC[C@@]56CCCN5C[C@H](F)C6)nc(N5CCC(C)(O)CC5)c4c4cn(C)nc34)c12 [Example 118, 1-[4-(8-ethyl-7-fluoro-3-hydroxy-1-naphthyl)-2-methyl-7-[[(2R,8S)-2-fluoro-1,2,3,5,6,7-hexahydropyrrolizin-8-yl]methoxy]pyrazolo[4,3-f]quinazolin-9-yl]-4-methyl-piperidin-4-ol] | 5.00 to 7.00 | 5.00 to 7.00 |  | 
20 | CCc1c(F)ccc2cc(O)cc(-c3cc4nc(OC[C@@]56CCCN5C[C@H](F)C6)nc(N5CCCOCC5)c4c4cnn(C)c34)c12 [Example 46, 5-ethyl-6-fluoro-4-[3-methyl-9-(1,4-oxazepan-4-yl)-7-[[(2R,8S)-2-fluoro-1,2,3,5,6,7-hexahydropyrrolizin-8-yl]methoxy]pyrazolo[4,3-f]quinazolin-4-yl]naphthalen-2-ol] |  | 5.00 to 7.00 | D (<49% inhibition at 10 μM) | 
21 | CCc1c(F)ccc2cc(O)cc(-c3cc4nc(OCC5(CN6CCC[C@H]6C(F)(F)F)CC5)nc(N5CCCn6nc(C(=O)N(C)C)cc6C5)c4c4cn(C)nc34)c12 [Example 71] |  |  | D (<49% inhibition at 10 μM) | D (<49% inhibition at 10 μM)
22 | CCc1c(F)ccc2cc(O)cc(-c3c(C)c4nc(OCC5(CN6CCOCC6)CC5)nc(N5CCOCC(C)(O)C5)c4c4cn(C)nc34)c12 (stereo not shown) [Example 149, 4-[4-(8-ethyl-7-fluoro-3-hydroxy-1-naphthyl)-2,5-dimethyl-7-[[1-(morpholinomethyl)cyclopropyl]methoxy]pyrazolo[4,3-f]quinazolin-9-yl]-6-methyl-1,4-oxazepan-6-ol] | ≥ 8.00 | ≥ 8.00 |  | 
23 | CCc1c(F)ccc2cc(O)cc(-c3c(F)c4nc(OCC5COCCN5)nc(N5CCOCC(C)(O)C5)c4c4cn(C)nc34)c12 (stereo not shown) [Example 233, 4-[4-(8-ethyl-7-fluoro-3-hydroxy-1-naphthyl)-5-fluoro-2-methyl-7-(morpholin-3-ylmethoxy)pyrazolo[4,3-f]quinazolin-9-yl]-6-methyl-1,4-oxazepan-6-ol] | ≥ 8.00 | 7.00 to 8.00 |  | 
